Data as given in patent publication US7824850B2, “Methods of protein destabilization and uses thereof” (Aurora Biosciences Corporation, priority 2000, dated 2010).
Where a SMILES comes first, the peptide text is derived from it. [ ]: non-standard residue; d: D form. The star is where a group is joined. Nle = CCCC[C@H](N)C(=O)O; Cbz = O=C(OCc1ccccc1)*; CH2F = FC*

Tests used:
HRV14 2A protease = assay: HRV 2A protease cell-based assay, Jurkat clone expressing 3XUb-HRV14-Bla; design: species or system human rhinovirus 14; conditions: compound 1 μM, 4 hours, cycloheximide 30 minutes
Method: (§1) To assay HRV 2A protease activity, the selected Jurkat stable cell clones were treated for 16 hours with […] clavulanate to inactivate pre-existing cleaved and uncleaved HRV 2A-Bla fusion protein. Cells were then washed twice with PBS, resuspended at 100,000 cells/well in 100 μl RPMI+10% FBS in 96-well plates. The cells were incubated at 37° C. for 4 hours in the presence or absence of an inhibitor of the 2A protease. Cells were treated with 100 μg/ml cycloheximide for 30 minutes at 37° C., loaded with CCF2-AM for 2 hours at room temperature and read on the CytoFluor plate reader as described in Example 8. Inhibitor compounds, radicicol and geldanamycin, were used for the validation of the HRV protease cell-based assay. […] Compounds were tested at 1 μM for their ability to inhibit the HRV 2A protease cell-based assay using clones expressing HRV16 and HRV14 2A protease reporters.

HRV16 2A protease = assay: HRV 2A protease cell-based assay, Jurkat clone expressing 3XUb-HRV16-Bla; design: species or system human rhinovirus 16; conditions: compound 1 μM, 4 hours, cycloheximide 30 minutes
Method: as §1

proteasome [1] = assay: In vitro degradation of 2XUb-Bla in chase lysate with inhibitors; conditions: 20 minutes at 37° C.
proteasome [2] = target: T1, proteasome (Homo sapiens, UniProt P28074); conditions: read-out: IC50 inhibition of decay of β-lactamase activity; Jurkat cells expressing 2XUb-Bla, 30 minutes preincubation, cycloheximide 1 hour
T1 sequence (P28074 60-263): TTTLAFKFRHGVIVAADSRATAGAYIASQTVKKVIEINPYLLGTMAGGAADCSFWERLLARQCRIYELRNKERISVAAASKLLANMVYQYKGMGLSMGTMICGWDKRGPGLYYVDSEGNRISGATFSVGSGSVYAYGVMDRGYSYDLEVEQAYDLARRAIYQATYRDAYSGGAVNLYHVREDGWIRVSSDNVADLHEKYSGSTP
T1 sequence (P28072 35-239 partner): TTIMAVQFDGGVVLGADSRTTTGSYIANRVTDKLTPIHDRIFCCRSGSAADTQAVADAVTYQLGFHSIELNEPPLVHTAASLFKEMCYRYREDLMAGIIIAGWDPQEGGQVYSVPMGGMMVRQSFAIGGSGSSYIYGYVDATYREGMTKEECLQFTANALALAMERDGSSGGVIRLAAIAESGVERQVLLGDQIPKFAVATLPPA
T1 sequence (Q99436 44-277 partner): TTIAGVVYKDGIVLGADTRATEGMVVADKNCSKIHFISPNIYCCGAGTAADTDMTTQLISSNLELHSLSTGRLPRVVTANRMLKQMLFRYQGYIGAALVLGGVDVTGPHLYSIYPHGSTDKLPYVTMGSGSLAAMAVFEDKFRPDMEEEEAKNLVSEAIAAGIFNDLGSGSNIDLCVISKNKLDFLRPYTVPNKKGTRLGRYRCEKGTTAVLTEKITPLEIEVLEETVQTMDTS
Method: The cells were loaded with CCF2-AM to measure β-lactamase activity as described above.
After 1 hour at 37° C., the cells were cooled to room temperature and then loaded with 1 μM CCF2-AM and β-lactamase activity quantified using a CytoFluor plate reader. The background-subtracted emission values at 460 nm and 530 nm were expressed as a 460/530 ratio and dose-response curves were plotted.

proteasome [3] = assay: TNT in vitro synthesis of multiUb-Bla fusions with or without proteasome inhibitor; conditions: 50 μM; β-lactamase fusions containing 2, 3 or 4 copies of ubiquitinG76V
From the text: S-Labeled multimerized destabilization domain-β-lactamase fusion protein molecules were produced using a coupled in vitro transcription/translation system based on a rabbit reticulocyte lysate (TNT T7 Quick; Promega).

[4] = overnight treatment of Jurkat cells; cited from earlier work
β-lactamase = target: T2, β-lactamase (Escherichia coli, UniProt P62593); assay: Control: β-lactamase activity in Jurkat cells expressing wild-type β-lactamase; assay type: cell-based; conditions: data not shown
T2 construct: wild-type (cleavable) ubiquitin (N, cleaved yes); expressed in transfected cells; host or cells: Jurkat

group II caspases = assay: Caspase activity assay in Jurkat clones expressing 2XUb-DEVD-Bla or 2XUb-DEVA-Bla (CCF2-AM, 460/530 ratio); assay type: cell-based, human

T2 sequence (P62593 24-286 limits assumed): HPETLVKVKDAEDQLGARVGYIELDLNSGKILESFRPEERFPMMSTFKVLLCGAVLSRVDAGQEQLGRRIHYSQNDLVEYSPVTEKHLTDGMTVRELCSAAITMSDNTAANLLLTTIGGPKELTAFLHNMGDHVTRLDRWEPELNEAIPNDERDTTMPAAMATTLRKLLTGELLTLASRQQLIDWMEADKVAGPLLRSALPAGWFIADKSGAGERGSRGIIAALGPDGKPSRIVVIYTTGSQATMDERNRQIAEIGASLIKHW

COC1=C2C[C@@H](C)C[C@H](OC)[C@H](O)[C@@H](C)/C=C(\C)[C@H](OC(N)=O)[C@@H](OC)/C=C\C=C(/C)C(=O)NC(=CC1=O)C2=O [geldanamycin]
460/530 nm ratio (HRV14 2A protease): 0.153
460/530 nm ratio (HRV16 2A protease): 0.239

CCCC[C@@H](C=O)NC(=O)[C@H](CC(C)C)NC(=O)[C@H](CC(C)C)NC(C)=O [Ac-LLN] (Ac-Leu-Leu-[Nle]-aldehyde)
effect on degradation of 2XUb-Bla in vitro (proteasome [1]; 50 μM): stabilized the 2XUb-Bla fusion protein
IC50 (proteasome [2]): 13 µM

CC(C)C[C@@H](C=O)NC(=O)[C@H](CC(C)C)NC(=O)[C@H](CC(C)C)NC(=O)OCc1ccccc1 [MG132] (Cbz-Leu-Leu-Leu-aldehyde)
effect on amount of fusion protein synthesized (proteasome [3]): dramatic increase in the amount of fusion protein synthesized

O=C(O)[C@H]1/C(=C/CO)O[C@@H]2CC(=O)N21 [Clavulanate, clavulanate]
effect on β-lactamase levels [4]: reduces β-lactamase levels to background

C[C@@H]1C[C@H]2O[C@@H]2/C=C\C=C\C(=O)Cc2c(Cl)c(O)cc(O)c2C(=O)O1 [radicicol]
460/530 nm ratio (HRV14 2A protease): 0.152
inhibition of β-lactamase activity (control) (β-lactamase): did not inhibit β-lactamase activity
460/530 nm ratio (HRV16 2A protease): 0.229

COC(=O)C[C@H](NC(=O)[C@H](C)NC(=O)[C@@H](NC(=O)OCc1ccccc1)C(C)C)C(=O)CF [Z-VAD-fmk] (Cbz-Val-Ala-Asp(OMe)-CH2F)
effect on stabilization of DEVD-Bla reporters (group II caspases; 10 μM coincident with anti-Fas addition): blocked the stabilization of DEVD-Bla reporters
IC50 (group II caspases; Jurkat cells expressing 2XUb-DEVD-Bla, 50 ng/ml anti-Fas IgM, read-out: IC50 inhibition of anti-Fas induced caspase activity): 5 µM

CC(=O)N[C@@H](CSC(=O)[C@]1([C@@H](O)C(C)C)NC(=O)[C@H](C)[C@@H]1O)C(=O)O [lactacystin]
effect on degradation of 2XUb-Bla in vitro (proteasome [1]; 10 μM): stabilized the 2XUb-Bla fusion protein
